Data on 13 compounds can be found in paper PMC10192418, “High-affinity peptides developed against calprotectin and their application as synthetic ligands in diagnostic assays” (Nature Communications, 2023).

Each structure is given as a SMILES string. Like-named read-outs stand apart in the source and are kept apart here. Numbered stars: 1 amine (or outer) side, 2 acyl side, 3 side chain; on linkers, the order of the positions; unused ones are H or OH. Bridge positions count the residues as written; N and C are the ends. Peptide text beside a SMILES is read from it. * marks the point of attachment. 5FAM = O=C1OC2(c3ccc(O)cc3Oc3cc(O)ccc32)c2ccc(C(=O)*)cc21; Pyridine(2,6-diCH2) = c1cc(C[*:1])nc(C[*:2])c1

For this test, the target named is T1, calprotectin tetramer (recombinant B-RCAL, His6-linker-S100A9-linker-S100A8) (Homo sapiens, UniProt P05109).
T1 construct: we used the recombinant protein without removing the His-tag or cleaving the 8-amino acid linker between the two proteins; co-authors' company
T1 sequence (P05109 with tags, fused parts or gaps): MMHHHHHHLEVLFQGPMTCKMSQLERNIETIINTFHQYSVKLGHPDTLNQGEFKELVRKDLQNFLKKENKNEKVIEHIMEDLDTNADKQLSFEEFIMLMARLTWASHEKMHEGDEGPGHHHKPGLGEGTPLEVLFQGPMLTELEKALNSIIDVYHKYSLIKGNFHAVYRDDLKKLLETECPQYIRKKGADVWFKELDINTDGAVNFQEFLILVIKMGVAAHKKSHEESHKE
Nature of the test: Fluorescence polarization (FP) binding to recombinant calprotectin B-RCAL tetramer in presence of CaCl2. On the procedure:
Calprotectin was serially diluted in 20 mM HEPES, 100 mM NaCl, 2 mM CaCl2, pH 7.5, and 1 mM DTT with 0.01% (v/v) Tween-20. Volumes of 16 μL of protein were added to 4 μL of fluorescent peptide (20 nM final concentration) in black 384-well microtiter plates. Fluorescence anisotropy was measured on a microwell plate reader (Infinite M200Pro, Tecan) with filters for excitation at 485 nm and emission at 535 nm. The dissociation constant (Kd) was calculated using a following Eq. (1) using Prism 5 software (GraphPad):1 A=Af+Ab−Af×LT+KD+PT−LT+KD+PT^2−4LTPT/2LT where A is anisotropy, Af and Ab are the anisotropy values for free and bound ligands, respectively. [L]T is the concentration of the total fluorescent ligand and [P]T the concentration of the protein.

[1] abbreviates: FP, alanine scan of linear peptide 3, 20 nM peptide, 2 mM CaCl2, one measurement, NB = non-binding.

As for `CSCC[C@H](NC(=O)[C@@H]1CCCN1C(=O)[C@H](Cc1ccccc1)NC(=O)[C@H](C)NC(=O)[C@@H](NC(=O)[C@@H]1CSCC(=O)CSC[C@H](NC(=O)[C@H](CCCNC(=N)N)NC(=O)c2ccc3c(c2)C(=O)OC32c3ccc(O)cc3Oc3cc(O)ccc32)C(=O)N2CCC[C@H]2C(=O)N[C@@H](CCC(=O)O)C(=O)N1)C(C)C)C(=O)N[C@@H](Cc1ccccc1)C(=O)N[C@@H](CCC(N)=O)C(=O)N[C@@H](CO)C(=O)N[C@@H](Cc1c[nH]cn1)C(=O)N[C@@H](Cc1c[nH]c2ccccc12)C(=O)N[C@@H](Cc1ccc(O)cc1)C(=O)N[C@@H](CO)C(=O)NCC(N)=O` (single isomer, unassigned) [Peptide 3 Isomer 1a], the Kd is 16.9 nM.

Regarding `CSCC[C@H](NC(=O)[C@@H]1CCCN1C(=O)[C@H](Cc1ccccc1)NC(=O)[C@H](C)NC(=O)[C@@H](NC(=O)[C@H](CO)NC(=O)[C@H](CCC(=O)O)NC(=O)[C@@H]1CCCN1C(=O)[C@H](CO)NC(=O)[C@H](CCCNC(=N)N)NC(=O)c1ccc2c(c1)C(=O)OC21c2ccc(O)cc2Oc2cc(O)ccc21)C(C)C)C(=O)N[C@@H](Cc1ccccc1)C(=O)N[C@@H](CCC(N)=O)C(=O)N[C@H]1CSCC(=O)CSC[C@@H](C(=O)NCC(N)=O)NC(=O)[C@H](Cc2ccc(O)cc2)NC(=O)[C@H](Cc2c[nH]c3ccccc23)NC(=O)[C@H](Cc2c[nH]cn2)NC1=O` (single isomer, unassigned) [Peptide 3 Isomer 1b], the Kd stood at 17.9 nM.

For `CSCC[C@@H]1NC(=O)[C@@H]2CCCN2C(=O)[C@H](Cc2ccccc2)NC(=O)[C@H](C)NC(=O)[C@H](C(C)C)NC(=O)[C@@H]2CSCC(=O)CSC[C@@H](C(=O)NCC(N)=O)NC(=O)[C@H](Cc3ccc(O)cc3)NC(=O)[C@H](Cc3c[nH]c4ccccc34)NC(=O)[C@H](Cc3c[nH]cn3)NC(=O)[C@H](CSCC(=O)CSC[C@H](NC(=O)[C@H](CCCNC(=N)N)NC(=O)c3ccc4c(c3)C(=O)OC43c4ccc(O)cc4Oc4cc(O)ccc43)C(=O)N3CCC[C@H]3C(=O)N[C@@H](CCC(=O)O)C(=O)N2)NC(=O)[C@H](CCC(N)=O)NC(=O)[C@H](Cc2ccccc2)NC1=O` (single isomer, unassigned) [Peptide 3 Isomer 2], the “FP increase upon binding to calprotectin” value (FP, 2 mM CaCl2) was 10–15%.

For `CSCC[C@@H]1NC(=O)[C@@H]2CCCN2C(=O)[C@H](Cc2ccccc2)NC(=O)[C@H](C)NC(=O)[C@H](C(C)C)NC(=O)[C@@H]2CSCC(=O)CSC[C@H](NC(=O)[C@H](CCC(N)=O)NC(=O)[C@H](Cc3ccccc3)NC1=O)C(=O)N[C@@H](Cc1c[nH]cn1)C(=O)N[C@@H](Cc1c[nH]c3ccccc13)C(=O)N[C@@H](Cc1ccc(O)cc1)C(=O)N[C@H](C(=O)NCC(N)=O)CSCC(=O)CSC[C@H](NC(=O)[C@H](CCCNC(=N)N)NC(=O)c1ccc3c(c1)C(=O)OC31c3ccc(O)cc3Oc3cc(O)ccc31)C(=O)N1CCC[C@H]1C(=O)N[C@@H](CCC(=O)O)C(=O)N2` (single isomer, unassigned) [Peptide 3 Isomer 3], for the setting “FP, 2 mM CaCl2”, the “FP increase upon binding to calprotectin” value is on record as 10–15%.

Take `CC(C)C[C@H](NC(=O)[C@@H]1CCCN1C(=O)[C@H](Cc1ccccc1)NC(=O)[C@H](C)NC(=O)[C@@H](NC(=O)[C@H](CO)NC(=O)[C@H](CCC(=O)O)NC(=O)[C@@H]1CCCN1C(=O)[C@H](CO)NC(=O)[C@H](CCCNC(=N)N)NC(=O)c1ccc2c(c1)C(=O)OC21c2ccc(O)cc2Oc2cc(O)ccc21)C(C)C)C(=O)N[C@@H](Cc1ccccc1)C(=O)N[C@@H](CCC(N)=O)C(=O)N[C@@H](CO)C(=O)N[C@@H](Cc1c[nH]cn1)C(=O)N[C@@H](Cc1c[nH]c2ccccc12)C(=O)N[C@@H](Cc1ccc(O)cc1)C(=O)N[C@@H](CO)C(=O)NCC(N)=O` [Met10Leu mutant] (5FAM-RSPESVAFPLFQSHWYSG-NH2): the Kd (FP, linear peptide 3 with Met10 mutated to leucine, 20 nM peptide, 2 mM CaCl2) is 30.6 ± 4.6 nM.

Turning to `CC[C@H](C)[C@@H]1NC(=O)[C@H](CO)NC(=O)[C@H](Cc2c[nH]c3ccccc23)NC(=O)[C@H](CCCNC(=N)N)NC(=O)[C@@H](NC(=O)[C@H](Cc2ccccc2)NC(=O)[C@@H]2CCCN2C(=O)c2ccc3c(c2)C(=O)OC32c3ccc(O)cc3Oc3cc(O)ccc32)CSCc2cccc(n2)CSC[C@@H](C(=O)N[C@@H](Cc2c[nH]cn2)C(N)=O)NC(=O)[C@H](CC(N)=O)NC(=O)[C@H](CC(=O)O)NC1=O` [Peptide 9] (5FAM-PFCRWSIDNCH-NH2; linker 3-10 via Pyridine(2,6-diCH2)), under “from fluorescence anisotropy titration, SI Figure 3”, the Kd is 29000 nM.

For the compound `CSCC[C@H](NC(=O)[C@@H]1CCCN1C(=O)[C@H](Cc1ccccc1)NC(=O)CNC(=O)[C@@H](NC(=O)[C@H](CO)NC(=O)[C@H](CCC(=O)O)NC(=O)[C@@H]1CCCN1C(=O)[C@H](CO)NC(=O)[C@H](CCCNC(=N)N)NC(=O)c1ccc2c(c1)C(=O)OC21c2ccc(O)cc2Oc2cc(O)ccc21)C(C)C)C(=O)N[C@@H](Cc1ccccc1)C(=O)N[C@@H](CCC(N)=O)C(=O)N[C@@H](CO)C(=O)N[C@@H](Cc1c[nH]cn1)C(=O)N[C@@H](Cc1c[nH]c2ccccc12)C(=O)N[C@@H](Cc1ccc(O)cc1)C(=O)N[C@@H](CO)C(=O)NCC(N)=O` [Peptide A7G] (5FAM-RSPESVGFPMFQSHWYSG-NH2), the Kd under setting [1] was 29 nM.

As to `CSCC[C@H](NC(=O)[C@@H]1CCCN1C(=O)[C@H](Cc1ccccc1)NC(=O)[C@H](C)NC(=O)[C@@H](NC(=O)[C@H](CO)NC(=O)[C@H](C)NC(=O)[C@@H]1CCCN1C(=O)[C@H](CO)NC(=O)[C@H](CCCNC(=N)N)NC(=O)c1ccc2c(c1)C(=O)OC21c2ccc(O)cc2Oc2cc(O)ccc21)C(C)C)C(=O)N[C@@H](Cc1ccccc1)C(=O)N[C@@H](CCC(N)=O)C(=O)N[C@@H](CO)C(=O)N[C@@H](Cc1c[nH]cn1)C(=O)N[C@@H](Cc1c[nH]c2ccccc12)C(=O)N[C@@H](Cc1ccc(O)cc1)C(=O)N[C@@H](CO)C(=O)NCC(N)=O` [Peptide E4A] (5FAM-RSPASVAFPMFQSHWYSG-NH2), under setting [1], the Kd stood at 26 nM.

Consider `CSCC[C@H](NC(=O)[C@@H]1CCCN1C(=O)[C@H](Cc1ccccc1)NC(=O)[C@H](C)NC(=O)[C@@H](NC(=O)[C@H](CO)NC(=O)[C@H](CCC(=O)O)NC(=O)[C@@H]1CCCN1C(=O)[C@H](CO)NC(=O)[C@H](CCCNC(=N)N)NC(=O)c1ccc2c(c1)C(=O)OC21c2ccc(O)cc2Oc2cc(O)ccc21)C(C)C)C(=O)N[C@@H](Cc1ccccc1)C(=O)N[C@@H](CCC(N)=O)C(=O)N[C@@H](CO)C(=O)N[C@@H](Cc1c[nH]cn1)C(=O)N[C@@H](Cc1c[nH]c2ccccc12)C(=O)N[C@@H](Cc1ccc(O)cc1)C(=O)N[C@@H](CO)C(=O)N[C@@H](C)C(N)=O` [Peptide G18A] (5FAM-RSPESVAFPMFQSHWYSA-NH2), for which the Kd under setting [1] worked out at 31 nM.

Take `CSCC[C@H](NC(=O)[C@@H]1CCCN1C(=O)[C@H](Cc1ccccc1)NC(=O)[C@H](C)NC(=O)[C@@H](NC(=O)[C@H](CO)NC(=O)[C@H](CCC(=O)O)NC(=O)[C@H](C)NC(=O)[C@H](CO)NC(=O)[C@H](CCCNC(=N)N)NC(=O)c1ccc2c(c1)C(=O)OC21c2ccc(O)cc2Oc2cc(O)ccc21)C(C)C)C(=O)N[C@@H](Cc1ccccc1)C(=O)N[C@@H](CCC(N)=O)C(=O)N[C@@H](CO)C(=O)N[C@@H](Cc1c[nH]cn1)C(=O)N[C@@H](Cc1c[nH]c2ccccc12)C(=O)N[C@@H](Cc1ccc(O)cc1)C(=O)N[C@@H](CO)C(=O)NCC(N)=O` [Peptide P3A] (5FAM-RSAESVAFPMFQSHWYSG-NH2): the Kd under setting [1] is 28 nM.

As to `CSCC[C@H](NC(=O)[C@H](C)NC(=O)[C@H](Cc1ccccc1)NC(=O)[C@H](C)NC(=O)[C@@H](NC(=O)[C@H](CO)NC(=O)[C@H](CCC(=O)O)NC(=O)[C@@H]1CCCN1C(=O)[C@H](CO)NC(=O)[C@H](CCCNC(=N)N)NC(=O)c1ccc2c(c1)C(=O)OC21c2ccc(O)cc2Oc2cc(O)ccc21)C(C)C)C(=O)N[C@@H](Cc1ccccc1)C(=O)N[C@@H](CCC(N)=O)C(=O)N[C@@H](CO)C(=O)N[C@@H](Cc1c[nH]cn1)C(=O)N[C@@H](Cc1c[nH]c2ccccc12)C(=O)N[C@@H](Cc1ccc(O)cc1)C(=O)N[C@@H](CO)C(=O)NCC(N)=O` [Peptide P9A] (5FAM-RSPESVAFAMFQSHWYSG-NH2), the Kd under setting [1] was 30 nM.

On to `CSCC[C@H](NC(=O)[C@@H]1CCCN1C(=O)[C@H](Cc1ccccc1)NC(=O)[C@H](C)NC(=O)[C@@H](NC(=O)[C@H](CO)NC(=O)[C@H](CCC(=O)O)NC(=O)[C@@H]1CCCN1C(=O)[C@H](CO)NC(=O)[C@H](CCCNC(=N)N)NC(=O)c1ccc2c(c1)C(=O)OC21c2ccc(O)cc2Oc2cc(O)ccc21)C(C)C)C(=O)N[C@@H](Cc1ccccc1)C(=O)N[C@@H](C)C(=O)N[C@@H](CO)C(=O)N[C@@H](Cc1c[nH]cn1)C(=O)N[C@@H](Cc1c[nH]c2ccccc12)C(=O)N[C@@H](Cc1ccc(O)cc1)C(=O)N[C@@H](CO)C(=O)NCC(N)=O` [Peptide Q12A] (5FAM-RSPESVAFPMFASHWYSG-NH2), for which, under setting [1], the Kd was 27 nM.

Take `CSCC[C@H](NC(=O)[C@@H]1CCCN1C(=O)[C@H](Cc1ccccc1)NC(=O)[C@H](C)NC(=O)[C@@H](NC(=O)[C@H](CO)NC(=O)[C@H](CCC(=O)O)NC(=O)[C@@H]1CCCN1C(=O)[C@H](CO)NC(=O)[C@H](C)NC(=O)c1ccc2c(c1)C(=O)OC21c2ccc(O)cc2Oc2cc(O)ccc21)C(C)C)C(=O)N[C@@H](Cc1ccccc1)C(=O)N[C@@H](CCC(N)=O)C(=O)N[C@@H](CO)C(=O)N[C@@H](Cc1c[nH]cn1)C(=O)N[C@@H](Cc1c[nH]c2ccccc12)C(=O)N[C@@H](Cc1ccc(O)cc1)C(=O)N[C@@H](CO)C(=O)NCC(N)=O` [Peptide R1A] (5FAM-ASPESVAFPMFQSHWYSG-NH2): the Kd under setting [1] was 32 nM.
